Several values for one entry are separate records, joined by “and”; a condition that tells them apart may be missing. Equal entries are not always repeated.
Legend:
Assay type in all cases: in vivo, Sprague-Dawley rats
[1] = Eight-month repeat dose toxicology study in rats: urinalysis
Experimental: (§1) The toxicological effects of repeated oral administration of (3aR,5R,6S,7R,7aR)-5-(hydroxymethyl)-2-propyl-5,6,7,7a-tetrahydro-3aH-pyrano[3,2-d]thiazole-6,7-diol (NAG-Bt) to Sprague-Dawley rats over eight months was measured. All animals were obtained from Charles-River as 5-week old healthy male Sprague-Dawley rats. Animals were given one week to acclimatize and at six weeks of age the appropriate treatment was initiated. Eight animals were fed food containing 100 mg/kg/day of NAG-Bt for eight months. Eight additional animals fed with food containing no inhibitor were used as controls. […] After four months of dosing, blood and urine samples were collected from four rats in each group.

[2] = Eight-month repeat dose toxicology study in rats: hematology (CBC) and serum chemistry
Experimental: as §1

[3] = test system: tau phosphorylation levels in brain tissue; assay: Decrease of rat brain tau phosphorylation levels (NAG-Bt); conditions: rats, 100 mg/kg/day in food for five days then 50 mg/kg IV, Western blot
Experimental: The effect of oral administration of NAG-Bt on tau phosphorylation levels in brain tissue in Sprague-Dawley rats was measured. All animals were obtained from Charles-River as 5-week old healthy male Sprague-Dawley rats. Animals were given one week to acclimatize and at six weeks of age the appropriate treatment was initiated. Four animals were fed food containing 100 mg/kg/day of NAG-Bt for five days. Four additional animals fed with food containing no inhibitor were used as controls. At the end of five days, the animals were fasted for 11 hours, then the four animals that received NAG-Bt in food were each given an intravenous tail vein injection of 50 mg/kg NAG-Bt. All animals were fasted for a further 5 hours, then they were sacrificed and brains were removed, stored, and processed as described in Example 29.
Western blotting of the samples thus obtained was carried out using the α-O-GlcNAc antibody (CTD110.6; Covance) and a-Actin antibody as described previously.^106 For Tau blotting, pS199, pS214, pS217, pS262, pS396, and pS422 (Biosource), Tau-5 (Lab Vision; a non-PTM dependent tau antibody), Tau-1 (Chemicon; selective for nonphosphorylated Ser195, Ser198, Ser199, and Ser202), and pS404 (Sigma) antibodies were used according to the manufacturer's protocols. Equal amounts of homogenized brain tissue from an animal treated with and without NAG-Bt were separated by SDS-PAGE followed by probing with each of the primary antibodies and an appropriate secondary antibody (either an anti-mouse or anti-rabbit IgG-HRP conjugate, as appropriate). The resulting Western blots are shown in FIGS. 2A-I, and reveal decreases of brain tau phosphorylation at multiple sites following treatment with NAG-Bt; lanes labeled “+” indicate samples from animals receiving NAG-Bt, while lanes labeled “-” indicate samples from animals receiving vehicle alone.

[4] = test system: levels of O-GlcNAc modification in brain and muscle tissue; assay: Dose-dependent elevation of rat brain and muscle O-GlcNAc levels (IV); conditions: rats, seven hours
Experimental: The effect of intravenous (IV) administration of (3aR,5R,6S,7R,7aR)-5-(hydroxymethyl)-2-propyl-5,6,7,7a-tetrahydro-3aH-pyrano[3,2-d]thiazole-6,7-diol (Compound 54; hereinafter referred to as NAG-Bt) on levels of O-GlcNAc modification in brain and muscle tissue in Sprague-Dawley rats was measured. Animals were obtained from Charles-River as 5-week old healthy male Sprague-Dawley rats. Animals were given one week to acclimatize and at six weeks of age the appropriate treatment was initiated. Eight animals were given intravenous tail vein injections of various concentrations of NAG-Bt or vehicle alone (PBS); doses of NAG-Bt included 0, 2, 5, 10, 25, 50, 100, and 250 mg/kg. Seven hours later animals were sacrificed and tissues were removed from animals as quickly as possible to minimize post-mortem delay. Tissues were immediately frozen in liquid nitrogen and stored at −80° C. until further use. Homogenization of the tissues was carried out by manual grinding followed by homogenization in cell lysis buffer (50 mM Tris, pH 8.0, 1 mM PMSF, 0.1% NP-40, 1 mM NAG-Bt) using a tissue homogenizer (IKA) at 4° C. Insoluble cell debris was removed by centrifugation at 17,900×g for 20 minutes at 4° C. and the resulting supernatant was stored at −20° C. until use.
Western blotting of the samples thus obtained was carried out using the α-O-GlcNAc antibody (CTD110.6; Covance) and the α-actin antibody as described previously.^106 Equal amounts of homogenized brain and muscle tissue from animals treated with NAG-Bt or vehicle alone were separated by SDS-PAGE followed by probing with the primary a-O-GlcNAc antibody and an anti-IgM-mouse IgG-HRP conjugate. […] FIGS. 1C and 1D are Western blots of samples loaded in the upper panels (FIGS. 1A and 1B) probed using anti-β-actin mAb clone AC-40 followed by an anti-mouse IgG-HRP conjugate, and reveal equivalent sample loading.

[5] = rat, in vivo, po, 100 mg/kg/day
[6] = IV 250 mg/kg, densitometry of Western blot

Structure (SMILES): CCCC1=N[C@@H]2[C@@H](O)[C@H](O)[C@@H](CO)O[C@@H]2S1 [NAG-Bt, (3aR,5R,6S,7R,7aR)-5-(hydroxymethyl)-2-propyl-5,6,7,7a-tetrahydro-3aH-pyrano[3,2-d]thiazole-6,7-diol]
- Urine Bilirubin [1, 5]: neg
- Urine Color [1, 5]: Yellow
- Urine Crystals [1, 5]: PO4
- Urine Crystals Amount [1, 5]: Many
- Urine Epith [1, 5]: neg
- Urine Glucose [1, 5]: neg
- Urine Gran Cast [1, 5]: neg
- Urine Hyal cast [1, 5]: neg
- Urine RBC Cast [1, 5]: neg
- Urine Urobil [1, 5]: Norm
- Urine Bacteria ([1]; rats dosed orally for 4 months at 100 mg/kg/day, individual treated rats): Mod- and neg (2×)
- ALT [2, 5]: 109.3 iu/l
- AST [2, 5]: 202.3 iu/l
- Albumin [2, 5]: 47.8 g/L
- Albumin/Globulin [2, 5]: 1.6
- Alkaline phsphatase [2, 5]: 168.3 iu/l
- Anion Gap [2, 5]: 29.8 mM
- Bilirubin total [2, 5]: 0.0 µM
- Blood Urea Nitrogen [2, 5]: 8.9 mM
- Calcium [2, 5]: 2.7 mM
- Carbon Dioxide [2, 5]: 17.5 mM
- Chloride [2, 5]: 104.5 mM
- Cholesterol [2, 5]: 2.9 mM
- Creatine Phosphokinase [2, 5]: 1324.5 iu/l
- Creatinine [2, 5]: 29.0 µM
- Gamma gt [2, 5]: 17.5 iu/l
- Globulin [2, 5]: 30.3 g/L
- Glucose [2, 5]: 2.0 mM
- Hematocrit [2, 5]: 0.5 l/l
- Hemoglobin [2, 5]: 169.5 g/L
- Lymphs % [2, 5]: 82.3%
- Mean Corp Hemoglobin [2, 5]: 16.9 pg
- Mean Corp Vol. [2, 5]: 53.3 fL
- Mean Platelet Vol [2, 5]: 9.3 fL
- Monocytes % [2, 5]: 4.3%
- Nonesterified Fatty Acids [2, 5]: 1.8 mM
- Osmolality [2, 5]: 292.9 mmol/kg
- Phosphorus [2, 5]: 2.2 mM
- Platelet cnt [2, 5]: 561.8 10e9/L
- Polys % [2, 5]: 10.8%
- Potassium [2, 5]: 5.9 mM
- RDW [2, 5]: 17.4
- Red cell cnt [2, 5]: 10.1 10^12/L
- Sodium [2, 5]: 145.8 mM
- Sorbitol Dehydrogenase [2, 5]: 22.3 iU/L
- Total Protein [2, 5]: 78.0 g/L
- Triglyceride [2, 5]: 2.7 mM
- White cell cnt [2, 5]: 3.8 1e9/l
- hematology (CBC), serum chemistry and urinalysis: differences between groups [2, 5]: no statistically significant differences
- changes in ALT, AST, bilirubin or sorbitol dehydrogenase (liver toxicity) ([2]; rats, oral 100 mg/kg/day, four months): no changes
- brain tau phosphorylation at Ser214 and Ser404 [3]: increases phosphorylation
- brain tau phosphorylation at Thr231 and Ser396 [3]: essentially blocks phosphorylation
- brain tau phosphorylation at the Tau-1 epitope (Ser195, Ser198, Ser199, Ser202), Ser199, Ser262, Ser396, Ser422, and Thr231 [3]: decreases in phosphorylation
- O-GlcNAc levels in brain and muscle tissue ([4]; IV 0 to 250 mg/kg, Western blot): dose-dependent elevation
- elevation of O-GlcNAc levels over baseline in brain tissue [4, 6]: roughly 25 fold
- elevation of O-GlcNAc levels over baseline in muscle tissue [4, 6]: roughly 10 fold
- minimum IV dose required for an observable effect in brain ([4]; IV, O-GlcNAc levels): roughly 5 mg/kg

— patent US8962664B2, “Selective glycosidase inhibitors and uses thereof” (Simon Fraser University, priority 2006, dated 2015)
